Results taken from patent US11541027B2 (DelMar Pharmaceuticals, Inc., priority 2014, dated 2023).
Entries after “also recorded” stand apart in the source; their conditions may differ.

Key:
[1] = tested on: OVCA-433; assay: 5-day MTT cytotoxicity, wild-type p53 ovarian tumor panel; type: cell-based, human; settings: OVCA-433, wt-p53, cisplatin-resistant, N = 3, read-out: DAG IC50 (μM) Mean
Description: (§1) The ovarian tumor panel lines are as follows: • is A2780; ▪ is 2780-CP16; ▴ is OVCAR-10; ▾ is HEY; and ♦ is OVCA-433. Dose-response curves were undertaken using a 5-day MTT assay to determine cell viability. The A2780 represents a cisplatin-sensitive model, whereas the other four cell lines are cisplatin-resistant. The cell line 2780-CP16 was derived for cisplatin resistance from A2780. The properties of some of these cell lines are disclosed in G. S. Hagopian et al., “Expression of p53 in Cisplatin-Resistant Ovarian Cell Lines: Modulation with the Novel Platinum Analog (1R,2R-Diaminocyclohexane)(trans-diacetato)(dichloro)-platinum(IV),” Clin. Cancer Res. 5: 655-663 (1999), and in Z. H. Siddik et al., “Independent Pathways of p53 Induction by Cisplatin and X-Rays in a Cisplatin-Resistant Cell Line,” Cancer Res. 58: 698-703 (1998), both incorporated herein by this reference.
(§2) The data of FIG. 7 are shown in Table 8 in terms of the IC50 of dianhdrogalactitol in the wild-type p53 human ovarian tumor panel.

[2] = tested on: 2780-CP; assay: as above; type: cell-based, human; settings: wt-p53, cisplatin-resistant, N = 3, read-out: DAG IC50 (μM) Mean
Description: as §1, §2

[3] = tested on: Ovcar-10; assay: as above; type: cell-based, human; settings: Ovcar-10, wt-p53, cisplatin-resistant, N = 3, read-out: DAG IC50 (μM) Mean
Description: as §1, §2

[4] = tested on: Hey; assay: as above; type: cell-based, human; settings: wt-p53, cisplatin-resistant, N = 3, read-out: DAG IC50 (μM) Mean
Description: as §1, §2

[5] = tested on: A2780; assay: as above; type: cell-based, human; settings: A2780, wt-p53, cisplatin-sensitive, N = 3, read-out: DAG IC50 (μM) Mean
Description: as §1, §2

[6] = tested on: A549 (TKI-sensitive) human lung adenocarcinoma xenograft tumors; assay: A549 NSCLC xenograft tumor model in female Rag2 mice; settings: for MTV at Day 68 / Median survival / TCR at Day 68 / TGD / TGI (%): W, F × 3; for MTV at Day 68 / Median survival / TCR at Day 68 / TGD / TGI (%) / number of animals remaining on study on day 70 / day on which a mean tumor volume of 200 mm^3 was observed / day on which a mean tumor volume of 400 mm^3 was reached / doubling time: A549 model; for TCR at Day 68: tumor control ratio; for TGD: tumor growth delay vs untreated control, doubling time 200 to 400 mm^3; for TGI (%): tumor growth inhibition; for day on which a mean tumor volume of 200 mm^3 was observed / day on which a mean tumor volume of 400 mm^3 was reached: days post-inoculation; for doubling time: mean tumor volume 200 to 400 mm^3
Experimental: Rag2 mice bearing subcutaneous human lung adenocarcinoma xenograft tumors of either TKI-resistant (H1975) or TKI-sensitive (A549) origin were treated.
Two human NSCLC cell lines, A549 (TKI-sensitive) and H1975 (TKI-resistant), were used as xenograft tumor models in female Rag2 mice. The mice were 6 to 8 weeks of age and weighed 18-23 grams. 10 mice were used per group.
Cisplatin was used in normal saline at a dose of 5 mg/kg. Administration was intravenous.
Administration was intraperitoneal.
Treatment was initiated at a tumor volume of 100 mm^3 to 150 mm^3.
The cells were started from a frozen vial of lab stock that were frozen down from the ATCC original vial and kept in liquid nitrogen. Cell cultures with a passage number of 3 to 10 and a confluence of 80%-90% were used. […] Cells were subcultured once weekly with a split ratio 1:3 to 1:8 and expanded.
For cell preparation and harvesting for subcutaneous (s.c.) inoculation, the cells were rinsed briefly once with Hanks Balanced Salt Solution without calcium or magnesium. […] The cells were allowed to sit at 37° C. for a few minutes. The cells were observed under an inverted microscope until the cell layer was dispersed, fresh medium was added, 50 μL of cell suspension was taken and mixed with trypan blue (1:1), and the cells were counted and cell viability assessed by using Cellometer Auto T4. The cells were centrifuged at 200×g for 7 minutes and the supernatant was aspirated. The cells were resuspended in growth medium to obtain a concentration of 100×10^6 cells/mL. For inoculation, 5×10^6 cells were used in an injection volume of 50 μL per mouse in 1:1 Matrigel.
On day 0, tumor cells were implanted subcutaneously into mice in a volume of 50 μL in Matrigel using a 28-gauge needle; injection of the tumor cells was in the back of the mice. Mice were randomly assigned to groups based on tumor volume.
For administration, 5 mL of 0.9% sodium chloride for injection, USP (saline) was added to yield a DAG solution with a concentration of 8 mg/mL.
Mice were injected with the required volume to administer the prescribed dose (mg/kg) to the animals based on individual mouse weights using a 28-gauge needle. The injection volume was 200 μL for a 20-g mouse. The mice were briefly (less than 30 seconds) restrained during intravenous injections. Dilation of the vein for intravenous injections was achieved by holding the animals under a heat lamp for a period of between 1-2 minutes.
Mice were individually weighed and injected intraperitoneally according to body weight at the specified injection concentration (see Table 1). The injection volume was based on 200 μL per 20-g mouse. The abdominal surface was wiped down with 70% isopropyl alcohol to clean the injection site.
Tumor growth was monitored by measuring tumor dimensions with calipers beginning on the first day of treatment. Tumor length and width measurements were obtained each Monday, Wednesday, and Friday. Tumor volumes were calculated according to the equation L×W^2/2 with the length (in mm) being defined as the longer axis of the tumor. Animals were weighed at the time of tumor measurement. Tumors were allowed to grow to a maximum of 800 mm^3 before termination.
All animals had blood collected by cardiac puncture at termination for CBC (complete blood count) with differentiation.
In particular, signs of ill-health were based on body weight loss, change in appetite, and behavioral signs such as altered gait, lethargy, and gross manifestations of stress.

[7] = group 5, 6 mg/kg i.p., only 3 of 9 scheduled doses

dianhydrogalactitol
IC50 [1]: 2.3 µM | IC50 [2]: 2.2 µM | IC50 [3]: 3.6 µM | IC50 [4]: 2.1 µM | IC50 [5]: 0.54 µM | MTV at Day 68 ([6]; 1.5 mg/kg i.p. M): 440 mm^3 | Median survival ([6]; 1.5 mg/kg i.p. M): 73.5 days | TCR at Day 68 ([6]; 1.5 mg/kg i.p. M): 0.69 | TGD ([6]; 1.5 mg/kg i.p. M): 9 days | TGI (%) ([6]; 1.5 mg/kg i.p. M): 32% | MTV at Day 68 ([6]; 3 mg/kg i.p. M): 303 mm^3 | Median survival ([6]; 3 mg/kg i.p. M): 82 days | TCR at Day 68 ([6]; 3 mg/kg i.p. M): 0.47 | TGD ([6]; 3 mg/kg i.p. M): 26 days | TGI (%) ([6]; 3 mg/kg i.p. M): 55% | body weight / tolerability of the dosage ([6]; 6 mg/kg i.p., treatment stopped after 3 doses, A549 tumor-bearing Rag2 mice): significant body weight loss; also recorded: significant weight loss and morbidity | number of animals remaining on study on day 70 ([6]; group 3, 1.5 mg/kg i.p. Monday, Wednesday, Friday for 3 weeks): 7/10 | day on which a mean tumor volume of 200 mm^3 was observed ([6]; group 3, 1.5 mg/kg i.p.): 45 days | day on which a mean tumor volume of 400 mm^3 was reached ([6]; group 3, 1.5 mg/kg i.p.): 67 days | doubling time ([6]; group 3, 1.5 mg/kg i.p.): 22 | number of animals remaining on study on day 70 ([6]; group 4, 3 mg/kg i.p. Monday, Wednesday, Friday for 3 weeks): 6/10 | day on which a mean tumor volume of 200 mm^3 was observed ([6]; group 4, 3 mg/kg i.p.): 42 days | day on which a mean tumor volume of 400 mm^3 was reached ([6]; group 4, 3 mg/kg i.p.): 81 days | doubling time ([6]; group 4, 3 mg/kg i.p.): 39 | number of animals remaining on study on day 70 [6, 7]: 8/10 | day on which a mean tumor volume of 200 mm^3 was observed [6, 7]: 54 days | hemoglobin (g/L), CBC analysis at termination, versus untreated control ([6]; groups 4 or 5 (3 or 6 mg/kg i.p.), A549 tumor-bearing Rag2 mice): Statistical significance (p<0.05)
